Converted amounts (≈) assume the structure as drawn.
Key:
L1210 [1] = assay: Cytotoxicity against mouse L1210 cells at 0.15 ug/disk by corbett disk diffusion assay; format: functional
[2] = Cytotoxicity against mouse Panc03 cells at 1.5 ug/disk by corbett disk diffusion assay; format: functional
L1210 [3] = assay: Cytotoxicity against mouse L1210 cells at 1.5 ug/disk by corbett disk diffusion assay; format: functional
MC-38 [4] = assay: Cytotoxicity against mouse C38 cells at 1.5 ug/disk by corbett disk diffusion assay; format: functional
KB = assay: Cytotoxicity against human KB cells; format: functional, cell-based
L1210 [5] = assay: Cytotoxicity against mouse L1210 cells at 100 ug/disk by corbett disk diffusion assay; format: functional
MC-38 [6] = assay: Cytotoxicity against mouse C38 cells at 100 ug/disk by corbett disk diffusion assay; format: functional
[7] = Cytotoxicity against human H116 cells at 100 ug/disk by corbett disk diffusion assay; format: functional
L1210 [8] = assay: Cytotoxicity against mouse L1210 cells at 200 ug/disk by corbett disk diffusion assay; format: functional
MC-38 [9] = assay: Cytotoxicity against mouse C38 cells at 200 ug/disk by corbett disk diffusion assay; format: functional
[10] = Cytotoxicity against human H116 cells at 200 ug/disk by corbett disk diffusion assay; format: functional
L1210 [11] = assay: Cytotoxicity against mouse L1210 cells at 5 ug/disk by corbett disk diffusion assay; format: functional
MC-38 [12] = assay: Cytotoxicity against mouse C38 cells at 5 ug/disk by corbett disk diffusion assay; format: functional
[13] = Cytotoxicity against human H116 cells at 5 ug/disk by corbett disk diffusion assay; format: functional
L1210 [14] = assay: Cytotoxicity against mouse L1210 cells at 10 ug/disk by corbett disk diffusion assay; format: functional
MC-38 [15] = assay: Cytotoxicity against mouse C38 cells at 10 ug/disk by corbett disk diffusion assay; format: functional
[16] = Cytotoxicity against human H116 cells at 10 ug/disk by corbett disk diffusion assay; format: functional

## Nc1ccn([C@@H]2O[C@H](CO)[C@@H](O)[C@@H]2O)c(=O)n1 [CYTARABINE]
L1210 [1]
  Activity: 550 Zone units
[2]
  Activity: 0 Zone units

## O=c1[nH]cc(F)c(=O)[nH]1 [FLUOROURACIL]
L1210 [3]
  Activity: 0 Zone units
MC-38 [4]
  Activity: 800 Zone units

## CC[C@H](C)[C@@H]1NC(=O)c2csc(n2)[C@@H](C(C)C)NC(=O)[C@H]2N=C(O[C@@H]2C)[C@H]([C@@H](C)CC)NC(=O)c2csc(n2)[C@@H](C(C)C)NC(=O)[C@@H]2COC1=N2 [PATELLAMIDE A]
KB
  IC50: 3 µg/mL (≈ 4.04 µM)
L1210 [5]
  Activity: 150 Zone units
MC-38 [6]
  Activity: 160 Zone units
[7]
  Activity: 0 Zone units

## CC[C@H](C)[C@@H]1NC(=O)c2csc(n2)[C@@H](C)NC(=O)[C@H]2N=C(O[C@@H]2C)[C@H](CC(C)C)NC(=O)c2csc(n2)[C@@H](Cc2ccccc2)NC(=O)[C@H]2N=C1O[C@@H]2C [PATELLAMIDE B]
KB
  IC50: > 4 µg/mL
L1210 [5]
  Activity: 50 Zone units
MC-38 [6]
  Activity: 150 Zone units
[7]
  Activity: 0 Zone units

## CC[C@H](C)[C@@H]1NC(=O)c2csc(n2)[C@@H](C)NC(=O)[C@H]2N=C(O[C@@H]2C)[C@H](C(C)C)NC(=O)c2csc(n2)[C@@H](Cc2ccccc2)NC(=O)[C@H]2N=C1O[C@@H]2C [PATELLAMIDE C]
KB
  IC50: 6 µg/mL (≈ 7.86 µM)
L1210 [8]
  Activity: 260 Zone units
MC-38 [9]
  Activity: 170 Zone units
[10]
  Activity: 0 Zone units

## CCC(C)OC(=O)C1(C)CCC(C)CC(O)C(C)C(=O)C(C)/C=C\CC(C)C(O)C(O)C(OC)/C(C)=C/C=C/C(C)C(C(C)(O)/C=C(/C)Cc2csc(C3(C)OC3C)n2)OC1=O (centres undefined) [PATELLAZOLE A]
KB
  IC50: 0.01 µg/mL (≈ 0.0113 µM)
L1210 [11]
  Activity: 240 Zone units
MC-38 [12]
  Activity: 320 Zone units
[13]
  Activity: 370 Zone units

## COC1/C(C)=C/C=C/C(C)C(C(C)(O)/C=C(/C)Cc2csc(C3(C)OC3C)n2)OC(=O)C(C)(C(=O)OC(C)C(C)O)CCC(C)CC(O)C(C)C(=O)C(C)/C=C\CC(C)C(O)C1O (centres undefined) [PATELLAZOLE B]
KB
  IC50: 0.0003 µg/mL (≈ 0.000332 µM)
L1210 [11]
  Activity: 300 Zone units
MC-38 [12]
  Activity: 460 Zone units
[13]
  Activity: 460 Zone units

## CC(C)C[C@H]1NC(=O)[C@H]2N=C(O[C@@H]2C)[C@H]2CSSC[C@@H](NC(=O)c3csc1n3)C1=N[C@H](C(=O)N[C@H](Cc3ccccc3)c3nc(cs3)C(=O)N2)[C@@H](C)O1 [ULITHIACYCLAMIDE B]
KB
  IC50: 0.017 µg/mL (≈ 0.0213 µM)
L1210 [14]
  Activity: 270 Zone units
MC-38 [15]
  Activity: 290 Zone units
[16]
  Activity: 280 Zone units

## CC(C)C[C@H]1NC(=O)[C@H]2N=C(O[C@@H]2C)[C@H]2CSSC[C@@H](NC(=O)c3csc1n3)C1=N[C@H](C(=O)N[C@H](CC(C)C)c3nc(cs3)C(=O)N2)[C@@H](C)O1 [ULITHIACYCLAMIDE]
KB
  IC50: 0.035 µg/mL (≈ 0.0459 µM)

— ChEMBL document CHEMBL1147292, “The structure of ulithiacyclamide B. Antitumor evaluation of cyclic peptides and macrolides from Lissoclinum patella” (J Nat Prod, 1989)
